# Data: US7326825B2, “Methods of ungulate nuclear transfer” (Roslin Institute (Edinburgh), priority 1995, dated 2008)
# Tests used:
# ovine oocytes = assay: Nuclei formation upon activation of reconstructed ovine oocytes matured in vivo; type: cell-based; conditions: donor cells introduced in the absence of activation
# Procedure: Similar observations to those in Example 1 have also been made in ovine oocytes which have been matured in vivo. Freshly ovulated oocytes can be retrieved by flushing from the oviducts of superstimulated ewes 24 hours after prostaglandin treatment. The use of calcium magnesium free PBS/1.0% FCS as a flushing medium prevents oocyte activation. Oocytes can be enucleated in calcium free medium and donor cells introduced as above in the absence of activation. No organised spindle is observed, multiple nuclei are formed upon subsequent activation and this may be suppressed by nocodazole treatment.
# [1] = test system: enucleated oocytes fused to primary bovine fibroblasts; assay: Pronuclear formation in enucleated oocytes fused to primary bovine fibroblasts and subsequently activated; type: cell-based; set-up: percentage of activated oocytes containing 1 PN / percentage of activated oocytes containing 2 PN / percentage of activated oocytes containing 3 PN / percentage of activated oocytes containing 4 PN / percentage of activated oocytes containing >4 PN: concentration or dose not given beside the values
# [2] = nocodazole 1 hour prior to and 6 hours following activation, fused 24 hpm, activated 42 hpm, scored 12 hours post activation
compound,measurement,setting,value
COC(=O)Nc1nc2ccc(C(=O)c3cccs3)cc2[nH]1 [nocodazole],formation of multiple nuclei upon subsequent activation,ovine oocytes,suppressed
same,formation of micronuclei,"[1]; incubation of activated oocytes for 5 hours, 1 hour prior to and following the activation stimulus",prevents the formation of micronuclei
same,percentage of activated oocytes containing 1 PN,[1]; [2],100%
same,percentage of activated oocytes containing 2 PN,[1]; [2],0%
same,percentage of activated oocytes containing 3 PN,[1]; [2],0%
same,percentage of activated oocytes containing 4 PN,[1]; [2],0%
same,percentage of activated oocytes containing >4 PN,[1]; [2],0%
